Earlier results in patent publication US10631556B2, “Method for conducing concentrated cannabis oil to be stable, emulsifiable and flavorless for use in hot beverages and resulting powderized cannabis oil” (Pivot Naturals, LLC., priority 2015, dated 2020).

How the values were obtained:
[1] = inhalation
CYP 2C9 = CYP 2C9 (Homo sapiens, UniProt P11712); details: anecdotal online article
[2] = mice, odor inhaled from ambient air for 1 hour
Mice [3] = details: odor inhaled from ambient air for 1 hour
Mice [4] = system: Mice

Chain of CYP 2C9 (P11712 whole entry): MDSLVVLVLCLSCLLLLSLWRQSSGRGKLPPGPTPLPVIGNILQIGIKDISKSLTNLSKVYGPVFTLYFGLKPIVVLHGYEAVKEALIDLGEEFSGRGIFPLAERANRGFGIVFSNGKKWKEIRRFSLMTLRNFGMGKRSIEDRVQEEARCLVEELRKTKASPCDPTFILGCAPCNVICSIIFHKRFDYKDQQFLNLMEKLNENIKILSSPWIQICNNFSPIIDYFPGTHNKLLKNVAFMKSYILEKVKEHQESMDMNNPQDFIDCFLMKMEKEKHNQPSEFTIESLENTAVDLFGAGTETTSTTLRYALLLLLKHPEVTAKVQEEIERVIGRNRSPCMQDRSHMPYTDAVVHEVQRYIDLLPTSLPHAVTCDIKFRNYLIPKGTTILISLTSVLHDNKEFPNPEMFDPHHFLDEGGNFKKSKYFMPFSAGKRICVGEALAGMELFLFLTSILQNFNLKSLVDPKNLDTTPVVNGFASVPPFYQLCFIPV

C=C(C)[C@H]1CC=C(C)CC1 [Limonene]
human pulmonary uptake [1]: 70%

O=C(/C=C/C=C/c1ccc2c(c1)OCO2)N1CCCCC1 [Piperine]
inhibition of CYP 2C9 (CYP 2C9): strongly

CCCCCc1cc(O)c2c(c1)OC(C)(C)[C@@H]1CCC(C)=C[C@@H]21 [THC, tetrahydrocannabinol]
solubility in most organic solvents (organic solvents, specifically lipids and alcohols): good
solubility in water (water): very low

C=CC(C)(O)CCC=C(C)C (centres unmarked) [linalool]
serum concentration [2]: 4.22 ng/mL
reduction in motility (Mice [3]): 73%

C=CC(=C)CCC=C(C)C [myrcene]
muscle relaxant effect (Mice [4]): acted as a muscle relaxant
barbiturate sleep time (Mice [4]; high doses): potentiated barbiturate sleep time

pinene
human pulmonary uptake [1]: 60%
serum concentration [2]: trace
increase in mouse activity (Mice [3]): 13.77%
